The subject of one data set is 4T1 breast cancer cells. Description: 4T1 triple-negative mice breast cancer model, second batch, DTX with or without medium dose preparation, 31 days. The data set is classed as in vivo, BALB/c mice. As for the experimental part: after the required amount of 4T1 breast cancer cells were cultured, the cells were resuspended in phosphate-buffered saline (PBS) after trypsin digestion and centrifugation, and the cells were counted and diluted to a cell concentration of 1×10^7 cells/mL. All mice were intraperitoneally injected with 50 mg/kg pentobarbital sodium and 0.5% lidocaine solution for infiltration anesthesia, under anesthesia, 0.1 mL cell suspension of each mouse was inoculated in the third pair of mammary fat pads on the left side, the cotton swab was pressed for a moment to avoid cell outflow after inoculation. During the inoculation process, the pipette blows the cell suspension to ensure uniform suspension.
experimental BALB/c mice were divided into 3 groups with 10 mice in each group. They were the PBS group, chemotherapy […] (DTX) group, and DTX+medium dose (0.85 mg/kg) group.
The mice were administered by gavage on the second day after tumor implantation, the DTX group was intraperitoneally injected with 0.2 mL of DTX, once a week. The DTX+medium dose group was intraperitoneally injected with DTX at the first and fourth weeks of inoculation and combined with the medium dose of Antler-Ginseng compound preparation. The tumor volume (L×W2×0.4) and body weight of mice were measured on the 7th day after inoculation. For a total of 31 days. Flow cytometry analysis: three mice in each group of PBS group and DTX+medium dose group were selected randomly for flow cytometry analysis of tumor tissue and spleen. All statistical analyses were performed by using GraphPad Prism 9.0, P<0.05 was considered statistically significant.
6. The Antler-Ginseng compound preparation reduces the course of chemotherapy and the frequency of medication, and the anti-tumor effect is better than the anti-tumor effect of single-agent chemotherapy. […]

A further data set concerns breast cancer. Description: Clinical observation and typical clinical cases of breast cancer patients. The note with it: clinical case 1, Abemaciclib and Fulvestrant for 3 days. The data set is classed as in vivo, human.

As for `CC(=O)O[C@@]12CO[C@@H]1C[C@H](O)[C@@]1(C)C(=O)[C@H](O)C3=C(C)[C@@H](OC(=O)[C@H](O)[C@@H](NC(=O)OC(C)(C)C)c4ccccc4)C[C@@](O)([C@@H](OC(=O)c4ccccc4)[C@H]21)C3(C)C` [DTX, docetaxel], in the data set on 4T1 breast cancer cells (DTX once a week, combination with halved chemotherapy frequency plus medium dose preparation), the “body weight of the experimental animals” value is listed as “significantly reduced”. In the data set on 4T1 breast cancer cells (P<0.05), the “tumor volume compared with the PBS group” value is “significantly lower” and the “tumor weight compared with the PBS group” value is recorded as “significantly lower”.

For the molecule `CCN1CCN(Cc2ccc(Nc3ncc(F)c(-c4cc(F)c5nc(C)n(C(C)C)c5c4)n3)nc2)CC1` [Abemaciclib], in the data set with breast cancer, the “increase of transaminase (liver function)” value worked out at 10 times.
